Patent US7235577B1 (priority 2000, dated 2007)
Read-outs that look alike come from different tables or passages of the source.

Experiments:
human IKCa1 channel = human IKCa1 channel (Homo sapiens, UniProt O15554); assay: cell-based
Description: COS-7 cells, maintained in Dulbecco's modified Eagle's medium (DMEM) containing 10% heat-inactivated fetal calf serum, 4 mM L-glutamine and 1 mM Na^+ pyruvate, were transiently transfected with hlKCa1.
Electrophysiological experiments were carried out in the whole-cell configuration of the patch-clamp technique using an EPC-9 amplifier (HEKA Elektronik, Lambrecht Germany) interfaced to a computer running acquisition and analysis software (Pulse and Pulsfit; HEKA Elektronik). Pipettes were pulled from soft glass capillaries, coated with Sylgard (Dow-Corning, Midland, Mich.), and fire polished to resistances of 2.0–4.5 MΩ measured in the bath. COS-7 cells were trypsinized and plated on glass coverslips 3 h before measurement. […] To prevent activation of the native chloride channels in COS-7 cells an aspartate Ringer solution was used as an external solution (160 mM Na^+ aspartate, 4.5 mM KCl, 2 mM CaCl2, 1 mM MgCl2, 5 mM HEPES, adjusted to pH 7.4 with NaOH, with an osmolarity of 290–310 mosM). 200 ms voltage ramps from −120 mV to 40 mV every 10 s were used. The holding potential in all experiments was −80 mV. Series resistance compensation was not employed. The reduction of slope conductance at −80 mV was used to determine the Kd-value by fitting the values to the Hill equation with a Hill coefficient of unity.

[1] = hIKCa1 in COS-7 cells, reduction of slope conductance at −80 mV, 1 μM free Ca++ in pipette
[2] = read-out: Kd for block of IKCa1, hIKCa1 in COS-7 cells, reduction of slope conductance at −80 mV, 1 μM free Ca++ in pipette

Chain of human IKCa1 channel (O15554 whole entry): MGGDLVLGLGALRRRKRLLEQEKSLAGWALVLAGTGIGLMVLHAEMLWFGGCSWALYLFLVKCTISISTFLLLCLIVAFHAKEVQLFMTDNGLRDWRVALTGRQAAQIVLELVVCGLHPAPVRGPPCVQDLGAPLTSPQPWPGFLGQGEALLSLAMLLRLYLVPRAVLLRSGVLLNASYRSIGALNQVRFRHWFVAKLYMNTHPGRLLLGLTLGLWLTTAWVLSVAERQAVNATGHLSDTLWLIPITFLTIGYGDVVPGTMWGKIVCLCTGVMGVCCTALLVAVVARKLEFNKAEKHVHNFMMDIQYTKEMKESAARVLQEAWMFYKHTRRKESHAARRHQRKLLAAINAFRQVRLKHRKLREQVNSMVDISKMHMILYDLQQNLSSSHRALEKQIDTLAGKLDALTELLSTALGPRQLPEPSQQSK

Row | Structure (SMILES) | melting point | Kd (human IKCa1 channel) | also measured
1 | NC(=O)NC(c1ccccc1)(c1ccccc1)c1ccccc1Cl | 243 °C |  | 
2 | Clc1ccccc1C(c1ccccc1)(c1ccccc1)n1cccc1 | 184 °C |  | 
3 | c1ccc(C(Nc2nccs2)(c2ccccc2)c2ccccc2)cc1 | 213 °C |  | 
4 | OC(c1ccccc1)(c1ccccc1)c1ccc(Cl)cc1 [Compound T1, (4-Chlorophenyl)diphenyl methanol] | 82 °C | 0.55 µM | 
5 | OC(c1ccccc1)(c1ccccc1)c1cccc(Cl)c1 [Compound T2, (3-Chlorophenyl)diphenyl methanol] | 53 °C | 0.53 µM | 
6 | OC(c1ccccc1)(c1ccc(Cl)cc1)c1ccc(Cl)cc1 [Compound T4, Bis-(4-chlorophenyl)phenyl methanol] | 86 °C |  | Kd for block of IKCa1 (human IKCa1 channel; [1]): No effect at 1 μM
7 | c1ccc(C(c2ccccc2)(c2ccccc2)N2CCCC2)cc1 [Compound T7, 1-Tritylpyrrolidine] | 126 °C | 30 µM | 
8 | OC(c1ccccc1)(c1ccccc1)c1cccs1 [Compound T9, (2-Thienyl)diphenyl methanol] | 129 °C | 1.5 µM | 
9 | c1ccc(C(c2ccccc2)(c2ccccc2)n2cccc2)cc1 [Compound T10, 1-Trityl-1H-pyrrole] | 243 °C | 28 µM | 
10 | c1ccc(C(c2ccccc2)(c2ccccc2)n2cccn2)cc1 [Compound T11, 1-Trityl-1H-pyrazole] | 202 °C | 2.5 µM | 
11 | OC(c1ccccc1)(c1ccccc1)c1ccc(F)cc1 [Compound T12, (4-Fluorophenyl)diphenyl methanol] | 120.5 °C | 0.7 µM | 
12 | c1ccc(C(NCc2ccc(CNC(c3ccccc3)(c3ccccc3)c3ccccc3)cc2)(c2ccccc2)c2ccccc2)cc1 [Compound T23, 1,4-Ditritylaminomethyl benzene] | 201 °C |  | Kd for block of IKCa1 (human IKCa1 channel; [1]): No effect at 1 μM
13 | NC(=O)NC(c1ccccc1)(c1ccccc1)c1ccccc1 [Compound T24, N-trityl urea] | 238 °C | 8 µM | 
14 | N#CC(c1ccccc1)(c1ccccc1)c1ccc(F)cc1 [Compound T27, 2-(4-Fluorophenyl)2,2-diphenylacetonitrile] | 76 °C | 0.8 µM | 
15 | NC(=O)NC(c1ccccc1)(c1ccccc1)c1ccc(Cl)cc1 [Compound T29, N-[(4-Chlorophenyl)diphenylmethyl] urea] | 228 °C | 15 µM | 
16 | NC(=O)NC(c1ccccc1)(c1ccccc1)c1ccc(F)cc1 [Compound T31, N-[(4-Fluorophenyl)diphenylmethyl] urea] | 222 °C | 8 µM | 
17 | OC(c1ccccc1)(c1cccs1)c1cccs1 [Compound T35, Di-(2-thienyl)phenyl methanol] | 86 °C | 9 µM | 
18 | OC(c1ccccc1)(c1ccccc1)c1ccccc1F [Compound T36, (2-Fluorophenyl)diphenyl methanol] | 116 °C | 0.7 µM | 
19 | NC(=O)NC(c1ccccc1)(c1ccccc1)c1ccccc1F [Compound T45, N-[(2-Fluorophenyl)diphenylmethyl] urea] | 225 °C | 1 µM | 
20 | Clc1ccccc1C(NCCNC(c1ccccc1)(c1ccccc1)c1ccccc1Cl)(c1ccccc1)c1ccccc1 [Compound T48, N,N-1,2-[(2-Chlorophenyl)diphenylmethyl]-amino ethane] | 228 °C | 30 µM | 
21 | Clc1ccccc1C(NCCCNC(c1ccccc1)(c1ccccc1)c1ccccc1Cl)(c1ccccc1)c1ccccc1 [Compound T49, N,N-1,3-[(2-Chlorophenyl)diphenylmethyl]-amino propane] | 198 °C | 32 µM | 
22 | FC(F)(F)c1ccc(C(c2ccccc2)(c2ccccc2)n2cccn2)cc1 [Compound T60, 1-{Diphenyl[4-(trifluoromethyl)-phenyl]methyl}-1H-pyrazole] |  | 1.5 µM | 

Row | Structure (SMILES) | melting point | Kd (human IKCa1 channel) | also measured
23 | FC(F)(F)c1ccc(C(Nc2nccs2)(c2ccccc2)c2ccccc2)cc1 [Compound T61, N-Diphenyl[4-(trifluoromethyl)phenyl]-methyl-N-(1,3-thiazol-2-yl)amine] |  | 35 µM | 
24 | Cc1cc(C)n(C(c2ccccc2)(c2ccccc2)c2ccccc2Cl)n1 [Compound T62, 1-[(2-Chlorophenyl)diphenylmethyl]-3,5-dimethyl-1H-pyrazole] |  | 12 µM | 
25 | Cc1ccn(C(c2ccccc2)(c2ccccc2)c2ccccc2Cl)n1 [Compound T63, 1-[(2-Chlorophenyl)diphenylmethyl]-3-methyl-1H-pyrazole] |  | 1.1 µM | 
26 | Clc1ccc(C(Nc2nccs2)(c2ccccc2)c2ccccc2)cc1 [Compound T64, N-[(4-Chlorophenyl)diphenylmethyl]-N-(1,3-thiazol-2yl)amine] |  | 20 µM | 
27 | FC(F)(F)c1ccn(C(c2ccccc2)(c2ccccc2)c2ccccc2Cl)n1 [Compound T65, 1-[(2-Chlorophenyl)diphenylmethyl]-3-(trifluorormethyl)-1H-pyrazole] |  | 2 µM | 
28 | Clc1ccccc1C(Nc1ncccn1)(c1ccccc1)c1ccccc1 [Compound T68, N-[(2-Chlorophenyl)diphenylmethyl]-N-(2-pyrimidyl)amine] |  | 0.9 µM | 
29 | Clc1ccccc1C(Nc1ccccn1)(c1ccccc1)c1ccccc1 [Compound T69, N-[(2-Chlorophenyl)diphenylmethyl]-N-(2-pyridyl)amine] |  | 28 µM | 
30 | Clc1ccc(C(Nc2ccncc2)(c2ccccc2)c2ccccc2)cc1 [Compound T70, N-[(4-Chlorophenyl)diphenylmethyl]-N-(4-pyridyl)amine] |  | 11 µM | 
31 | O=C1c2ccccc2C(=O)N1C(c1ccccc1)(c1ccccc1)c1ccccc1Cl [Compound T71, 2-[(2-Chlorophenyl)diphenylmethyl]-1H-isoindole-1,3(2H)-dione] |  |  | Kd for block of IKCa1 (human IKCa1 channel; [1]): No effect at 10 μM
32 | FC(F)(F)c1ccccc1C(Nc1nccs1)(c1ccccc1)c1ccccc1 [Compound T72, N-Diphenyl[2-(trifluoromethyl)phenyl]-methyl-N-(1,3-thiazol-2yl)amine] |  | 25 µM | 
33 | FC(F)(F)c1ccccc1C(Nc1ncccn1)(c1ccccc1)c1ccccc1 [Compound T73, N-Diphenyl[2-(trifluoromethyl)phenyl]-methyl-N-(2-pyrimidinyl)amine] |  | 15 µM | 
34 | CC(=O)NC(c1ccccc1)(c1ccccc1)c1ccccc1F [Compound T76, N-(2-Fluorophenyl)diphenylmethyl acetamide] | 215 °C | 1.2 µM | 
35 | CCOC(=O)C(C(=O)OCC)C(c1ccccc1)(c1ccccc1)c1ccccc1Cl [Compound T77] |  |  | Kd (human IKCa1 channel; [2]): 0.8 µM
36 | Fc1ccccc1C(Nc1nccs1)(c1ccccc1)c1ccccc1 [Compound T78, N-[(2-Fluorophenyl)diphenylmethyl]-N-(1,3-thiazol-2yl)amine] |  | 12 µM | 
37 | Cc1csc(NC(c2ccccc2)(c2ccccc2)c2ccccc2Cl)n1 [Compound T79, N-[(2-Chlorophenyl)diphenylmethyl]-N-(4-methyl-1,3-thiazol-2yl)amine] |  | 8 µM | 
38 | O=[N+]([O-])c1ccc(S(=O)(=O)c2cnc(NC(c3ccccc3)(c3ccccc3)c3ccccc3Cl)s2)cc1 [Compound T81, N-{5-[(4-Nitrophenyl)sulfonyl]-1,3-thiazol-2yl}-N[(2-chlorophenyl)-(diphenyl)-methyl]amine] |  | 15 µM | 
39 | NC(c1ccccc1)(c1ccccc1)c1ccccc1C(F)(F)F [Compound T82, (2-Trifluoromethylphenyl)-diphenylmethyl amine] |  |  | Kd (human IKCa1 channel; [2]): 2.5 µM
40 | CC(=O)NC(c1ccccc1)(c1ccccc1)c1ccccc1C(F)(F)F [Compound T83, N-(2-Trifluoromethylphenyl)diphenylmethyl acetamide] | 185 °C | 1.5 µM | 
41 | Clc1ccccc1C(c1ccccc1)(c1ccccc1)n1cnnn1 [Compound T84, 1-[(2-Chlorophenyl)diphenylmethyl]-1H-1,2,3,4-tetrazole] |  | 0.045 µM | IKCa1 inhibition compared with clotrimazole (human IKCa1 channel; refers to TABLE 8): more potent inhibitors of IKCa1 channels than clotrimazole
42 | Clc1ccccc1C(c1ccccc1)(c1ccccc1)n1cnc2ccccc21 [Compound T85, 1-[(2-Chlorophenyl)diphenylmethyl]-1H-1,3-benzimidazole] |  |  | Kd for block of IKCa1 (human IKCa1 channel; [1]): No effect at 1 μM
43 | c1ccc(C(c2ccccc2)(c2ccccc2)n2ccnc2)cc1 [Compound T86] |  |  | Kd (human IKCa1 channel; [2]): 1.5 µM
